Tests used:
Assay type in all cases: in vivo
Hordeum vulgare (HORVW) [1] = assay: Pre-emergence herbicidal evaluation, winter barley
Procedure, shortened: (§1)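 Seeds mixed with potting soil were planted over about one inch of soil per pot, then sprayed with test compound in aqueous acetone at the equivalent of about 0.0125 to 0.4 kg per hectare. Pots were kept under standard greenhouse care and visually rated 2 to 4 weeks after treatment.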

Oryza sativum (ORYSA) [2] = assay: Pre-emergence herbicidal evaluation, rice
Procedure, shortened: as §1

[3] = test system: Triticum aestivum (TRZAW); assay: Pre-emergence herbicidal evaluation, winter wheat
Procedure, shortened: as §1

[4] = test system: Abutilon theophrasti (ABUTH); assay: Pre-emergence herbicidal evaluation, velvetleaf
Procedure, shortened: as §1

[5] = test system: Ambrosia artemiisifolia (AMBEL); assay: Pre-emergence herbicidal evaluation, ragweed
Procedure, shortened: as §1

Galium aparine (GALAP) [6] = assay: Pre-emergence herbicidal evaluation, cleaver
Procedure, shortened: as §1

[7] = test system: Ipomoea hederacea (IPOHE); assay: Pre-emergence herbicidal evaluation, morning glory
Procedure, shortened: as §1

Lamium purpureum (LAMPU) = assay: Pre-emergence herbicidal evaluation, purple deadnettle
Procedure, shortened: as §1

[8] = test system: Matricaria inodora (MATIN); assay: Pre-emergence herbicidal evaluation, mayweed
Procedure, shortened: as §1

Stellaria media (STEME) = assay: Pre-emergence herbicidal evaluation, chickweed
Procedure, shortened: as §1

[9] = test system: Alopecurus myosuroides (ALOMY); assay: Pre-emergence herbicidal evaluation, black grass
Procedure, shortened: as §1

[10] = test system: Echinochloa grus galli (ECHCG); assay: Pre-emergence herbicidal evaluation, barnyard grass
Procedure, shortened: as §1

Setaria viridis (SETVI) [11] = assay: Pre-emergence herbicidal evaluation, green foxtail
Procedure, shortened: as §1

Glycine max (GLXMA) = assay: Post-emergence herbicidal evaluation, soyabeans; settings: rated 2 to 4 weeks after treatment
Procedure, shortened: (§2)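 Rating scale 0 (same growth as untreated control) to 9 (death), scored 2–4 weeks after treatment. Sprays were water-diluted acetone solutions applied to emerged plants at about 0.03–0.4 kg/ha test compound per pot, followed by standard greenhouse care.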

Hordeum vulgare (HORVW) [12] = assay: Post-emergence herbicidal evaluation, winter barley; settings: rated 2 to 4 weeks after treatment
Procedure, shortened: as §2

Oryza sativum (ORYSA) [13] = assay: Post-emergence herbicidal evaluation, rice; settings: rated 2 to 4 weeks after treatment
Procedure, shortened: as §2

[14] = test system: Triticum aestivum (TRZAW); assay: Post-emergence herbicidal evaluation, winter wheat; settings: rated 2 to 4 weeks after treatment
Procedure, shortened: as §2

Zea mays (ZEAMX) = assay: Post-emergence herbicidal evaluation, maize; settings: rated 2 to 4 weeks after treatment
Procedure, shortened: as §2

[15] = test system: Abutilon theophrasti (ABUTH); assay: Post-emergence herbicidal evaluation, velvetleaf; settings: rated 2 to 4 weeks after treatment
Procedure, shortened: as §2

[16] = test system: Ambrosia artemiisifolia (AMBEL); assay: Post-emergence herbicidal evaluation, ragweed; settings: rated 2 to 4 weeks after treatment
Procedure, shortened: as §2

Galium aparine (GALAP) [17] = assay: Post-emergence herbicidal evaluation, cleaver; settings: rated 2 to 4 weeks after treatment
Procedure, shortened: as §2

[18] = test system: Ipomoea hederacea (IPOHE); assay: Post-emergence herbicidal evaluation, morning glory; settings: rated 2 to 4 weeks after treatment
Procedure, shortened: as §2

[19] = test system: Matricaria inodora (MATIN); assay: Post-emergence herbicidal evaluation, mayweed; settings: rated 2 to 4 weeks after treatment
Procedure, shortened: as §2

[20] = test system: Alopecurus myosuroides (ALOMY); assay: Post-emergence herbicidal evaluation, black grass; settings: rated 2 to 4 weeks after treatment
Procedure, shortened: as §2

[21] = test system: Echinochloa grus galli (ECHCG); assay: Post-emergence herbicidal evaluation, barnyard grass; settings: rated 2 to 4 weeks after treatment
Procedure, shortened: as §2

Setaria viridis (SETVI) [22] = assay: Post-emergence herbicidal evaluation, green foxtail; settings: rated 2 to 4 weeks after treatment
Procedure, shortened: as §2

Cc1cc(OC=CCC(F)(F)F)nc(Oc2cc(C(F)(F)F)nn2C)c1 [Example 2, 2-(1-Methyl-3-trifluoromethylpyrazol-5-yloxy)-4-methyl-6-(4,4,4-trifluorobut-1-enyloxy)pyridine]
2 (2 - Slight effect): ORYSA rating (Oryza sativum (ORYSA) [2]; dose 0.1 kg/ha) | GALAP rating (Galium aparine (GALAP) [6]; dose 0.1 kg/ha) | ECHCG rating ([10]; dose 0.025 kg/ha) | ORYSA rating (Oryza sativum (ORYSA) [13]; dose 0.03 kg/ha) | TRZAW rating ([14]; dose 0.03 kg/ha) | ZEAMX rating (Zea mays (ZEAMX); dose 0.03 kg/ha) | ALOMY rating ([20]; dose 0.03 kg/ha) | ECHCG rating ([21]; dose 0.03 kg/ha)
5 (5 - Definite injury): HORVW rating (Hordeum vulgare (HORVW) [1]; dose 0.4 kg/ha) | SETVI rating (Setaria viridis (SETVI) [11]; dose 0.013 kg/ha) | ZEAMX rating (Zea mays (ZEAMX); dose 0.4 kg/ha) | AMBEL rating ([16]; dose 0.03 kg/ha) | GALAP rating (Galium aparine (GALAP) [17]; dose 0.03 kg/ha) | ALOMY rating ([20]; dose 0.1 kg/ha) | ECHCG rating ([21]; dose 0.1 kg/ha)
3 (3 - Moderate effect): HORVW rating (Hordeum vulgare (HORVW) [1]; dose 0.1 kg/ha) | ORYSA rating (Oryza sativum (ORYSA) [2]; dose 0.4 kg/ha) | TRZAW rating ([3]; dose 0.4 kg/ha) | AMBEL rating ([5]; dose 0.025 kg/ha) | IPOHE rating ([7]; dose 0.025 kg/ha) | IPOHE rating ([7]; dose 0.1 kg/ha) | HORVW rating (Hordeum vulgare (HORVW) [12]; dose 0.03 kg/ha) | HORVW rating (Hordeum vulgare (HORVW) [12]; dose 0.1 kg/ha) | HORVW rating (Hordeum vulgare (HORVW) [12]; dose 0.4 kg/ha) | ORYSA rating (Oryza sativum (ORYSA) [13]; dose 0.1 kg/ha) | ORYSA rating (Oryza sativum (ORYSA) [13]; dose 0.4 kg/ha) | TRZAW rating ([14]; dose 0.1 kg/ha) | TRZAW rating ([14]; dose 0.4 kg/ha)
8 (8 - Approaching complete kill): AMBEL rating ([5]; dose 0.1 kg/ha) | LAMPU rating (Lamium purpureum (LAMPU); dose 0.013 kg/ha) | LAMPU rating (Lamium purpureum (LAMPU); dose 0.025 kg/ha) | MATIN rating ([8]; dose 0.1 kg/ha) | ECHCG rating ([10]; dose 0.1 kg/ha) | GLXMA rating (Glycine max (GLXMA); dose 0.1 kg/ha) | GLXMA rating (Glycine max (GLXMA); dose 0.4 kg/ha) | ABUTH rating ([15]; dose 0.03 kg/ha) | ABUTH rating ([15]; dose 0.1 kg/ha) | AMBEL rating ([16]; dose 0.4 kg/ha) | IPOHE rating ([18]; dose 0.03 kg/ha) | MATIN rating ([19]; dose 0.1 kg/ha) | ALOMY rating ([20]; dose 0.4 kg/ha) | SETVI rating (Setaria viridis (SETVI) [22]; dose 0.1 kg/ha) | SETVI rating (Setaria viridis (SETVI) [22]; dose 0.4 kg/ha)
9 (9 - Complete kill): ABUTH rating ([4]; dose 0.4 kg/ha) | AMBEL rating ([5]; dose 0.4 kg/ha) | GALAP rating (Galium aparine (GALAP) [6]; dose 0.4 kg/ha) | LAMPU rating (Lamium purpureum (LAMPU); dose 0.1 kg/ha) | LAMPU rating (Lamium purpureum (LAMPU); dose 0.4 kg/ha) | MATIN rating ([8]; dose 0.4 kg/ha) | STEME rating (Stellaria media (STEME); dose 0.1 kg/ha) | STEME rating (Stellaria media (STEME); dose 0.4 kg/ha) | ALOMY rating ([9]; dose 0.4 kg/ha) | ECHCG rating ([10]; dose 0.4 kg/ha) | SETVI rating (Setaria viridis (SETVI) [11]; dose 0.1 kg/ha) | SETVI rating (Setaria viridis (SETVI) [11]; dose 0.4 kg/ha) | ABUTH rating ([15]; dose 0.4 kg/ha) | GALAP rating (Galium aparine (GALAP) [17]; dose 0.4 kg/ha) | IPOHE rating ([18]; dose 0.1 kg/ha) | IPOHE rating ([18]; dose 0.4 kg/ha) | MATIN rating ([19]; dose 0.4 kg/ha)
1 (1 - Trace effect): ORYSA rating (Oryza sativum (ORYSA) [2]; dose 0.025 kg/ha) | TRZAW rating ([3]; dose 0.1 kg/ha) | ABUTH rating ([4]; dose 0.013 kg/ha) | AMBEL rating ([5]; dose 0.013 kg/ha) | IPOHE rating ([7]; dose 0.013 kg/ha) | ALOMY rating ([9]; dose 0.013 kg/ha) | ALOMY rating ([9]; dose 0.025 kg/ha)
4 (4 - Injury): ABUTH rating ([4]; dose 0.025 kg/ha) | MATIN rating ([8]; dose 0.013 kg/ha) | ZEAMX rating (Zea mays (ZEAMX); dose 0.1 kg/ha) | SETVI rating (Setaria viridis (SETVI) [22]; dose 0.03 kg/ha)
6 (6 - Herbicidal effect): ABUTH rating ([4]; dose 0.1 kg/ha) | MATIN rating ([8]; dose 0.025 kg/ha) | SETVI rating (Setaria viridis (SETVI) [11]; dose 0.025 kg/ha) | AMBEL rating ([16]; dose 0.1 kg/ha) | MATIN rating ([19]; dose 0.03 kg/ha)
7 (7 - Good herbicidal effect): IPOHE rating ([7]; dose 0.4 kg/ha) | ALOMY rating ([9]; dose 0.1 kg/ha) | GLXMA rating (Glycine max (GLXMA); dose 0.03 kg/ha) | GALAP rating (Galium aparine (GALAP) [17]; dose 0.1 kg/ha) | ECHCG rating ([21]; dose 0.4 kg/ha)
0 (0 - No effect): HORVW rating (Hordeum vulgare (HORVW) [1]; dose 0.013 kg/ha) | HORVW rating (Hordeum vulgare (HORVW) [1]; dose 0.025 kg/ha) | ORYSA rating (Oryza sativum (ORYSA) [2]; dose 0.013 kg/ha) | TRZAW rating ([3]; dose 0.013 kg/ha) | TRZAW rating ([3]; dose 0.025 kg/ha) | GALAP rating (Galium aparine (GALAP) [6]; dose 0.013 kg/ha) | GALAP rating (Galium aparine (GALAP) [6]; dose 0.025 kg/ha) | STEME rating (Stellaria media (STEME); dose 0.013 kg/ha) | STEME rating (Stellaria media (STEME); dose 0.025 kg/ha) | ECHCG rating ([10]; dose 0.013 kg/ha)

— patent US6852673B2, “Herbicidal pyridine compounds” (BASF Aktiengesellschaft, priority 1998, dated 2005)
